For assay [1], the system named is β-galactosidase-enriched B16 melanoma cells. Briefly: Conversion of (6) to Imiquimod by β-galactosidase-enriched B16 cells, LC-MS/MS. In kind it is cell-based, murine. How it is done: For LC-MS/MS experiments, mobile phase A consisted of 0.05% formic acid and 0.2% acetic acid in water, and mobile phase B comprised 90% acetonitrile, 9.9% water, and 0.1% formic acid. Using a flow rate of 400 μL/min, mobile phase B 5% isocratic for 0.5 min, before gradient to 95% B over 2.2 min, followed by 95% isocratic for 0.1 min. The total chromatographic assay time (including time to equilibrate for the next run) was 4.0 min per sample. Optimized mass spectrometer parameters were as follows: collision gas, 20 psig; curtain gas, 20 psig; ion source gas 1, 60 psig; ion source gas 2, 40 psig; ion spray voltage, 5500 V; desolvation temperature, 600° C.; declustering potential, 70 V; entrance potential, 10 V; collision energy, 50 V; collision cell exit potential, 10 V. The substrate was detected using multiple reaction monitoring mode by monitoring the m/z fragmentation from 597.8 to 241.2 Da for (6) and the Imiquimod product was monitored for 241.2 to 185.1 Da fragmentation.
Murine melanoma cells (B16-F10, 5×10^6 cells) were removed from cell culture and pelletized via centrifuge (200 RCF, 0° C., 10 min). The supernatant was removed from the cell pellet, and cells were suspended in 1.5 mL of complete culture media (10% HI-FBS in DMEM) or preservative free FACS solution (10% HI-FBS in DPBS) that was pre-chilled on ice. Next, 15 μL of 0.5 mg/mL biotinylated α-gp-100 antibody (Abcam, UK) was added to the suspended cells, and the suspension was incubated on ice for 30 min with occasional shaking. Cells were then pelletized (200 RCF, 10 min, 0° C.) and washed 4 times each with 10 mL of chilled preservative free FACS solution (10% HI-FBS in DPBS). Washing Procedure: The cell pellet was suspended in 10 mL of FACS and centrifuged (200 RCF, 0° C., 10 min). Supernatant was removed from pellet, and the cells were suspended in subsequent chilled FACS solution for 1 min with constant shaking before this procedure was repeated. […] Enzyme enrichment (20-350 pU/cell) was quantified as average increase in enzymatic activity per cell determined by NPG colorimetric assay.

For the next assay, the system named is JAWSII cells. The assay is described as follows: JAWSII ELISA cytokine production (TNF, IL-6, IL-12). Type of assay: cell-based, murine. As for the experimental part:
Measurement of JAWSII cytokine production was performed similarly to manufacturer instructions. The cytokines analyzed were IL-12, IL-6, and TNF. For the cytokine assays, 1×10^5 JAWSII cells were seeded in an optically clear bottomed 6-well plate in 1 mL of complete assay media (identical to JAWSII growth media) for a density of 1×10^5 cells/well. Cells were incubated for 42 h. For co-culture experiments with JAWSII and B16 or β-galactosidase-enriched B16 cells, JAWSII cells were seeded at a density of 1×10^5 cells/well and allowed to adhere for 42 h before the addition of B16 cells, which were seeded at a density of 1×10^5 cells/well. For co-culture experiments with JAWSII and β-galactosidase-enriched B16 cells, JAWSII cells were seeded at a density of 1×10^5 cells/well and allowed to adhere for 42 h before the addition of β-galactosidase-enriched B16 cells, which were seeded at a density of 1×10^5 cells/well.
For experiments with β-gal, a stock solution (500 U/mL, where 1 U=1 μmol/min) was used. A final enzymatic activity of 1 U/well was achieved by addition of 2 μL of the 500 U/mL stock solution to each well. Stock solutions of Imiquimod or (6) in DMSO (1.15 and 1.49 mg/mL, respectively) were then added to the appropriate wells to achieve a final concentration of 5 μM. The cells were incubated for 16 h (37° C., 5% CO2) before supernatant was collected. Cells were pelletized (200 RCF, 10 min) and removed. Supernatant was analyzed for cytokines without further dilution according to manufacturer instructions for ELISA. Absorbance was analyzed at 450 nm and standard curves were used to determine absolute cytokine concentrations.
A general note: ELISA stands for enzyme-linked immunosorbent assay.

The test system of another assay is AT3B1 cells. The assay is described as follows: Conversion of pro-immunostimulant to Imiquimod by α-Mannosidase or AT3B-1 cells, LC-MS/MS. In kind it is cell-based, rat. To be noted: α-Mannosidase 0.1 U/mL or AT3B1 cells, 0-48 h. How it is done:
To concretely determine the conversion of pro-immunostimulant (compound 6) to Imiquimod in the presence of α-Mannosidase over time for exogenous and endogenous experiments, 20 μL aliquots of 100 μM (pro-immunostimulant (compound 6)) in DMEM were incubated with 180 μL of either α-Mannosidase (0.1 U/mL, 37° C., 5% CO2), or AT3B1 cells (1×105, or 5×105, or 1×10^6 cells, 37° C., 5% CO2) without the addition of exogenous enzyme as shown by FIG. 6. To stop the reaction at the specified time points (0, 1, 2, 3, 6, 12, 24, and 48 h), 50 μL AO Quench Internal Standard (20 μg/mL, 2-methyl-4(3H)-quinazolinone in 1 M formic acid) was added to each individual reaction. Samples were then analyzed via LC-MS/MS.
The AT3B-1 cell line (ATCC CRL-2375, rat prostate epithelial malignant carcinoma) were grown in complete culture media composed of Roswell Park Memorial Institute (RPMI) 1640 medium with 4.5 g/L glucose, 2 mM L-glutamine, 10,000 U/mL penstrep, 10 mM HEPES and supplemented with 10% HI-FBS and 1 μM doxorubicin. Media was changed every 3-4 days omitting the doxorubicin, and cells were passaged once per week. Passaging involved changing media, counting, and seeding 3×10^5 cells in 35 mL of new complete media in a new T-175 culture flask.
α-Mannosidase from Canavalia ensiformis (Jack bean) was used directly from the bottle to make a 1 U/mL stock solution in DPBS. […]

For the substance “4-Imiquimod-2-nitrophenyl-galactopyranoside [compound 6]”, in assay [1] (β-galactosidase-enriched B16 cells (5 mU), over 3 h), the “conversion of the compound” value is recorded as “quantitative conversion”. Further, the “conversion to Imiquimod” value in assay [1] (β-galactosidase-enriched B16 cells, 1×10^5 cells/well, 35 mU/well, 24 h) is recorded as “near quantitative conversion”. In addition, in assay [1] (β-galactosidase-enriched B16 cells, after 3 h), the “conversion into Imiquimod” value is recorded as above 36%. In addition, the “pro-inflammatory cytokine production (TNF, IL-6, IL-12)” value in the assay with JAWSII cells (5 μm, without β-galactosidase) is recorded as “not induce significant pro-inflammatory cytokine production”. The pro-inflammatory cytokine production entry in the assay with JAWSII cells (co-cultures of JAWSII and β-galactosidase-enriched B16 melanoma cells) is given as “resulted in the production of pro-inflammatory cytokines”. Moreover, the “cytokine production relative to Imiquimod, all three cytokines (TNF, IL-6, IL-12)” value with JAWSII cells (with exogenous β-galactosidase, equimolar Imiquimod) is above 80%. Moreover, the “conversion to Imiquimod and efflux” value with AT3B1 cells is “still being converted in the presence of enzyme and effluxed”.

These data come from patent US11117918B2, “Enzyme-directed immunostimulant and uses thereof” (Washington State University, priority 2016, dated 2021).
